# Like-named read-outs stand apart in the source and are kept apart here.
# Tested on: VSV
# Assay type: in vivo, mouse
smiles,measurement,setting,value
c1ccc([C@H]2CN3CCSC3=N2)cc1 [levamisole],efficacy index (mean of at least 2 tests),"mouse, in vivo",0
same,efficacy index (mean of at least 2 tests),preparation dilution 1:4,toxic
same,efficacy index (mean of at least 2 tests),preparation dilution 1:8,0
same,efficacy index (mean of at least 2 tests),preparation dilution 1:32,0
same,efficacy index (mean of at least 2 tests),preparation dilution 1:64,0
same,efficacy index (mean of at least 2 tests),preparation dilution 1:128,0

# From patent US6805870B1 (priority 1994, dated 2004)
